In ChEMBL document CHEMBL1135490, “Naphthalene dicarboxaldehyde as an electrophilic fluorogenic moiety for affinity labeling: application to opioid receptor affinity labels with greatly improved fluorogenic properties” (J Med Chem, 2002):

Molecular target: Mu-type opioid receptor (Homo sapiens, UniProt P35372)
Assay: Inhibition of [3H]- diprenorphine binding on Opioid receptor mu 1 expressed in human embryonic kidney (HEK) cells
Format: cell-based

Mu-type opioid receptor, sequence (P35372 whole entry): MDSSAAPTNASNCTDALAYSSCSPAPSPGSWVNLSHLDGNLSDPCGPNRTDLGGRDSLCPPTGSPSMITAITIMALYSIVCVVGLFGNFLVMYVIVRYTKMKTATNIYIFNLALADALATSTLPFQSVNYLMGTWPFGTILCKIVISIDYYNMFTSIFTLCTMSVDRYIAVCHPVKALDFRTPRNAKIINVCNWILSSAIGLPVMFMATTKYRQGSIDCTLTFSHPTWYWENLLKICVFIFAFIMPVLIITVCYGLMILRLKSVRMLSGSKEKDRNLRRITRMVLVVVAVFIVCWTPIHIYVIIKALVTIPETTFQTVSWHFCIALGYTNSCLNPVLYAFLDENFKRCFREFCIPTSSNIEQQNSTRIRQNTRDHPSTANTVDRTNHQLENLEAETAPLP

**Q.** Which Ki does the source give for `O=Cc1cc2ccc(C(=O)N[C@@H]3CC[C@@]4(O)C5Cc6ccc(O)c7c6[C@@]4(CCN5CC4CC4)[C@H]3O7)cc2cc1C=O` here?
**A.** 0.744 nM
